# Reference: patent US20200239398A1, “METHYLENE-CYCLOALKYLACETATE DERIVATIVES AND THEIR USE IN TREATMENT OF NEUROTROPIC CONDITIONS” (Yissum Research Development Company of The Hebrew …, priority 2018, published 2020)
# Where two headings read alike, the source gives them in different places.
# Assays:
# [1] = target: T1, Nuclear Hormone Glucocorticoid Receptor (GR) (Homo sapiens, UniProt P04150); experiment: SAFETYscan GR Nuclear Hormone Receptor Translocation; format: cell-based; conditions: 10 μM HU-MCA-13, read-out: Maximal Response
# T1 construct: DiscoverX (SAFETYscan contract panel)
# T1 sequence (P04150 whole entry): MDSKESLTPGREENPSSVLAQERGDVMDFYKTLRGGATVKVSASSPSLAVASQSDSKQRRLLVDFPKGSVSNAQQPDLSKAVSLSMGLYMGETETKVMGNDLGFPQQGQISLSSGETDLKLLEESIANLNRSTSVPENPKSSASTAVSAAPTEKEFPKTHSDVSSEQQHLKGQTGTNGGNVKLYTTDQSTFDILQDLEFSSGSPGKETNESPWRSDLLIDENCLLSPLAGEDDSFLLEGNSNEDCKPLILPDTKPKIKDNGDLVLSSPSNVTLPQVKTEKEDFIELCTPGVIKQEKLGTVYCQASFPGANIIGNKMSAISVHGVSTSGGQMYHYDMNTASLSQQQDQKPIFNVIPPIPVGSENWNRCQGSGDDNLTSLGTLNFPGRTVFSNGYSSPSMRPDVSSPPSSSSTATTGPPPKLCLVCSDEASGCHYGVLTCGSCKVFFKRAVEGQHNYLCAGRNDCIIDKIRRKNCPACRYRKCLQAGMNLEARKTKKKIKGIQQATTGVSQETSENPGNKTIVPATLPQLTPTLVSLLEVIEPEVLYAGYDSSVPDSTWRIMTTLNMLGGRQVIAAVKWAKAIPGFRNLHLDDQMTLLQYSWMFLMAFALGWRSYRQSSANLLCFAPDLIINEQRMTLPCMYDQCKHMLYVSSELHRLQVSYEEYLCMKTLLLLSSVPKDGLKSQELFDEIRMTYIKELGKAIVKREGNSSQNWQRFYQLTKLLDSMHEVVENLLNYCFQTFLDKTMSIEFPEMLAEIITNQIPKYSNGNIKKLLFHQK
# [2] = target: T2, Serotonin transporter (SERT) (Homo sapiens, UniProt P31645); experiment: cell-based; conditions: Blocker mode; 10 μM HU-MCA-13; read-out: Maximal Response
# T2 construct: DiscoverX (SAFETYscan contract panel)
# [3] = target: 5-Hydroxytryptamine (Serotonin) Receptor 2B (HTR2B) (Homo sapiens, UniProt P41595); experiment: SAFETYscan HTR2B Calcium Flux; format: cell-based; conditions: 10 μM HU-MCA-13, read-out: Maximal Response
# 5-Hydroxytryptamine (Serotonin) Receptor 2B (HTR2B), sequence (P41595 whole entry): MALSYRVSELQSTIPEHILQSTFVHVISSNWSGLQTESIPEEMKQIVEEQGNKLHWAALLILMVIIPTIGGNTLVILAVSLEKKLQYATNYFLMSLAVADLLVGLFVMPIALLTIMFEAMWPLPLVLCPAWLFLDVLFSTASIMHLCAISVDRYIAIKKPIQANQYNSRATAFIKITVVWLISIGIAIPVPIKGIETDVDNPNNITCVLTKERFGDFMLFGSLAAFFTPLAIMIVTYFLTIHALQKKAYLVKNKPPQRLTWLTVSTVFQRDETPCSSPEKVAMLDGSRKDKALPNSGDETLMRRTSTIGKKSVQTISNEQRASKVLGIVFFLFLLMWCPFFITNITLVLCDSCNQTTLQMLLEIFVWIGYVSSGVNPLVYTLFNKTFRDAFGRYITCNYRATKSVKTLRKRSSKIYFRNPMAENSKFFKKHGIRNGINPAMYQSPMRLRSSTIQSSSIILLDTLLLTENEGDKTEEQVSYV
# PC12 cells [4] = experiment: Cytotoxicity (cell morphology, LDH release); format: cell-based; conditions: 10 μM
# [5] = target: 5-Hydroxytryptamine (Serotonin) Receptor 1A (HTR1A) (Homo sapiens, UniProt P08908); experiment: SAFETYscan HTR1A cAMP; format: cell-based; conditions: 10 μM HU-MCA-13
# 5-Hydroxytryptamine (Serotonin) Receptor 1A (HTR1A), sequence (P08908 whole entry): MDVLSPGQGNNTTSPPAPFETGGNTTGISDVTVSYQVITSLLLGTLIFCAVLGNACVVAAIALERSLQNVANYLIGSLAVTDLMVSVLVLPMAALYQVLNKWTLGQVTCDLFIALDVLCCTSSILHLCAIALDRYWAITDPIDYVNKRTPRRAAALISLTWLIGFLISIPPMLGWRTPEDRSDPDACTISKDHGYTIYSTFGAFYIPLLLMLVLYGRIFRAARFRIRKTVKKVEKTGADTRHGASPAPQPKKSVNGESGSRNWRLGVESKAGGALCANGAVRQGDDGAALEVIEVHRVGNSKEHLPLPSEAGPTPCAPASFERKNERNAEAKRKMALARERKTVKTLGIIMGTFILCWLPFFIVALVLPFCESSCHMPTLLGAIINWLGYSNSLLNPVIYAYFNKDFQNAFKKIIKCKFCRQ
# [6] = target: T3, cAMP-specific 3′,5′-cyclic phosphodiesterase 4D2 (PDE4D2) (Homo sapiens, UniProt Q08499); experiment: SAFETYscan PDE4D2 Enzymatic; format: biochemical; conditions: Inhibitor mode; 10 μM HU-MCA-13; read-out: Maximal Response
# T3 construct: DiscoverX (SAFETYscan contract panel)
# [7] = target: T4, 5-Hydroxytryptamine (Serotonin) Receptor 3A (HTR3A) (Homo sapiens, UniProt P46098); experiment: SAFETYscan HTR3A Ion channel; format: cell-based; conditions: 10 μM HU-MCA-13, read-out: Maximal Response
# T4 construct: DiscoverX (SAFETYscan contract panel)
# T4 sequence (P46098 24-478): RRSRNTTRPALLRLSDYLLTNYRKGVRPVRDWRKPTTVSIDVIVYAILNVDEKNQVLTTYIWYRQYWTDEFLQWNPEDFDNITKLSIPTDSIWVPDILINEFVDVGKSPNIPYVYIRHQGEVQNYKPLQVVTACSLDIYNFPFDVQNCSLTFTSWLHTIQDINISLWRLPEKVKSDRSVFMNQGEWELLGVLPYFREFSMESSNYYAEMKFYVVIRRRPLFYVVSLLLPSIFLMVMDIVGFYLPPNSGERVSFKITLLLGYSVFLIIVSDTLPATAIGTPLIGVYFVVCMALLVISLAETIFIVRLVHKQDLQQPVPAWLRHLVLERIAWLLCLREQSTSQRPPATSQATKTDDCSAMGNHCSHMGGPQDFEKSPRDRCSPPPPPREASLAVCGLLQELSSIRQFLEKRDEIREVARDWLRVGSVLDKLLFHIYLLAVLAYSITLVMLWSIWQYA
# PC12 cells [8] = experiment: PC12 cell neurotropic assay (neurite outgrowth); format: cell-based, rat; conditions: 10 μM
# Description: PC12 cells were grown in T-200 flasks in high glucose (4.5 gr/L) DMEM medium supplemented with 7% FCS, 7% horse serum and 1% penicillin and streptomycin. Cells were incubated at 37° C. in a humidified incubator containing 6% CO2. All experiments were carried out in a clean room, according to ISO7 requirements (10,000 particles/m^3).
# Tissue culture Falcon plates were coated with 200 μg/ml collagen type 1 and placed under UV light for 30 minutes for sterilization. Thereafter, one ml of PC12 cell suspension (5000 cells/well) was applied in 12 or 24 well plate, respectively. The cultures were grown in the incubator two days before exposure to investigated compound.
# This experimental procedure contained two controls. The first consisted of untreated cells (negative control), representing the random effect: “noise signal”—the ability of cells to spontaneously grow neurite outgrowth which in seven days are of a length less than two-fold cell diameter. Also, negative controls consisted of cultures treated with 1% DMSO, solvent used to solubilize all compounds. The positive control consisted of cells treated with 50 ng/ml NGF, indicating maximal neurite outgrowth that can be achieved in this model. The experimental group consisted of PC12 cells treated with synthetic compounds. In each experiment, after two and seven days, six cultures were evaluated for neurotropic effect. These consecutive observations allow measurement of the progress of neurite outgrowth elongation and the percentage of cells with neurites.^31
# In order to assess neurotropic effect, the neurite outgrowth length in each culture was quantified. For this purpose, each culture was placed under an inverted microscope and photographed by the attached camera. Each well was photographed at three to five representative areas. After acquiring the photos, they were analyzed by ImageJ, NIH software. The neurite outgrowth was estimated by fractal dimension (Df), a statistical parameter that describes the fractional space (area and length) filled by neurite outgrowth. Df ranged from 0 to 1.20. This method estimates the amount of picsel covered by neurites/cells compared to empty space per square field, and therefore plotting log (number of square boxes) vs. log (size in pixels) relationship generates a linear curve with Df representing the slope of the curve. Every photograph that was taken, was opened in a Photoshop software and a new layer was generated on it. Using a 5-pixel wide digital pencil tool, all the outgrowths were marked and the layer with the markers (outgrowth network) was saved in a 0-255 gray scale as described in FIG. 2. Then, the saved layer was opened by ImageJ NIH software. The software “skeletonized” the layer, measured the length and complexity of every outgrowth in a fractal box count and calculated the fractional dimension parameter (Df).^32
# Each experiment was performed in duplicates and repeated three to four times (n=6-8). By using SPSS software, one way ANOVA was performed for the fractional dimension of each compound, in order to evaluate the neurotropic effect. In case of significance, Bonferroni post-hoc analysis was performed. The results were considered significant when p<0.05.
# [9] = target: Opioid Receptor Delta 1 (OPRD1) (Homo sapiens, UniProt P41143); experiment: SAFETYscan OPRD1 cAMP; format: cell-based; conditions: 10 μM HU-MCA-13, read-out: Maximal Response
# Opioid Receptor Delta 1 (OPRD1), sequence (P41143 whole entry): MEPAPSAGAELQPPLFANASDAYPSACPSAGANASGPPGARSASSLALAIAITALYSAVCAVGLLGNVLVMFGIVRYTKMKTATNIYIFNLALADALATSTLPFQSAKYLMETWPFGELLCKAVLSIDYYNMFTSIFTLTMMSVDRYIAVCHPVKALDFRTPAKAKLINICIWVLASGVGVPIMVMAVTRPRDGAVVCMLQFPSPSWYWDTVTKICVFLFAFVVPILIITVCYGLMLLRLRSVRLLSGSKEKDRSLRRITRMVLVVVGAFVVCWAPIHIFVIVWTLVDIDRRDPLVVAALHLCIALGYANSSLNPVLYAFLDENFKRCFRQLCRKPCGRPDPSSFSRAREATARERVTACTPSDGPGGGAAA
# [10] = target: 5-Hydroxytryptamine (Serotonin) Receptor 2A (HTR2A) (Homo sapiens, UniProt P28223); experiment: SAFETYscan HTR2A Calcium Flux; format: cell-based; conditions: 10 μM HU-MCA-13, read-out: Maximal Response
# 5-Hydroxytryptamine (Serotonin) Receptor 2A (HTR2A), sequence (P28223 whole entry): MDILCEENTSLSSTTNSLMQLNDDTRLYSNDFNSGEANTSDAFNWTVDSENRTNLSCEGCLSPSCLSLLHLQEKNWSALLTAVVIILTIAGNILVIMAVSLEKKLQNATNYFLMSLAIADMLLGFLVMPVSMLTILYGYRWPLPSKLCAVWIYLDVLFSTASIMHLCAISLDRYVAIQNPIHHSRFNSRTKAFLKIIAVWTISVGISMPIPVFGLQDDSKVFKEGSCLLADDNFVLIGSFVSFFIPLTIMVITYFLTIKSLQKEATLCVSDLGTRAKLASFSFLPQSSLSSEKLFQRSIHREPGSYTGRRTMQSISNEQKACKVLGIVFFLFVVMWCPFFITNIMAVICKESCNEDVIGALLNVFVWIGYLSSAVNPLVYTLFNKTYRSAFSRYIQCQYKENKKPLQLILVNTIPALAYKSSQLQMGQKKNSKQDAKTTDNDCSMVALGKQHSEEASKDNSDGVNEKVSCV
# Cyclooxygenase 2 (COX 2) = target: T5, Cyclooxygenase 2 (COX 2) (Homo sapiens, UniProt P35354); experiment: SAFETYscan COX 2 Enzymatic; format: biochemical; conditions: Inhibitor mode; 10 μM HU-MCA-13; read-out: Maximal Response
# T5 construct: DiscoverX (SAFETYscan contract panel)
# T5 sequence (P35354 18-604): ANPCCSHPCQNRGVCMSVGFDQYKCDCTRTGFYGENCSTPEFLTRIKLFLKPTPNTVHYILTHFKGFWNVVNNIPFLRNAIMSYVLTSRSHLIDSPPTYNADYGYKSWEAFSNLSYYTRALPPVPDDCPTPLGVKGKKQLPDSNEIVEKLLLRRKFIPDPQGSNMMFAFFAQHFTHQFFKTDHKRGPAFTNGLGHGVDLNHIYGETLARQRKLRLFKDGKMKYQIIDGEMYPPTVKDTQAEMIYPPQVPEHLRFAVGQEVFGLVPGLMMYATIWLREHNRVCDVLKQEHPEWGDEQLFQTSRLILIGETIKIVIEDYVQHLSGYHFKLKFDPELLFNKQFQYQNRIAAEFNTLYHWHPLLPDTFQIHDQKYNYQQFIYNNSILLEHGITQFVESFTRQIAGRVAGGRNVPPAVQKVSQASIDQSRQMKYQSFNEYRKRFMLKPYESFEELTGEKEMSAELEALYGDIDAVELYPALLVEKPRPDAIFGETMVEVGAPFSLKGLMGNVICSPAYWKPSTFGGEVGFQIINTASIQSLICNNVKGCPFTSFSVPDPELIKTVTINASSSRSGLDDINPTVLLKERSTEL
# [11] = target: T6, cGMP-inhibited cyclic nucleotide phosphodiesterase 3A (PDE3A) (Homo sapiens, UniProt Q14432); experiment: SAFETYscan PDE3A Enzymatic; format: biochemical; conditions: Inhibitor mode; 10 μM HU-MCA-13; read-out: Maximal Response
# T6 construct: DiscoverX (SAFETYscan contract panel)
# [12] = target: T7, Kv7.1/KCNE Potassium voltage-gated channel (KvLQT1/minK) (Homo sapiens, UniProt P51787); experiment: SAFETYscan KvLQT1/minK Ion channel; format: cell-based; conditions: 10 μM HU-MCA-13, read-out: Maximal Response
# T7 construct: DiscoverX (SAFETYscan contract panel)
# [13] = target: Adrenergic Receptor β1 (ADRB1) (Homo sapiens, UniProt P08588); experiment: SAFETYscan ADRB1 cAMP; format: cell-based; conditions: 10 μM HU-MCA-13, read-out: Maximal Response
# Adrenergic Receptor β1 (ADRB1), sequence (P08588 whole entry): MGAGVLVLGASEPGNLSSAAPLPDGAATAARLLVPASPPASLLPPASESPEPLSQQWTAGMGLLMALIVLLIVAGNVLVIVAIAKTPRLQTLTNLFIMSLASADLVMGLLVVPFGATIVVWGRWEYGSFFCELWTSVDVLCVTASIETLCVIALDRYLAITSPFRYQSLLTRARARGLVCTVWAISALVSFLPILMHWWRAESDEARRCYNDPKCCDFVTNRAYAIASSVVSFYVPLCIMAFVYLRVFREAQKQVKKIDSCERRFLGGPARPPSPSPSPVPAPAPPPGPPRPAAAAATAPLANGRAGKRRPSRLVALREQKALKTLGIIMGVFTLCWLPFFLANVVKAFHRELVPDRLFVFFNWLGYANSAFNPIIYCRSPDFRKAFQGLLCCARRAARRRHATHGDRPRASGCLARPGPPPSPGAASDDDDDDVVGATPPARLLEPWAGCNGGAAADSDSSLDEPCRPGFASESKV
# [14] = target: Muscarinic acetylcholine Receptor M1 (CHRM1) (Homo sapiens, UniProt P11229); experiment: cell-based; conditions: 10 μM HU-MCA-13, read-out: Maximal Response
# Muscarinic acetylcholine Receptor M1 (CHRM1), sequence (P11229 whole entry): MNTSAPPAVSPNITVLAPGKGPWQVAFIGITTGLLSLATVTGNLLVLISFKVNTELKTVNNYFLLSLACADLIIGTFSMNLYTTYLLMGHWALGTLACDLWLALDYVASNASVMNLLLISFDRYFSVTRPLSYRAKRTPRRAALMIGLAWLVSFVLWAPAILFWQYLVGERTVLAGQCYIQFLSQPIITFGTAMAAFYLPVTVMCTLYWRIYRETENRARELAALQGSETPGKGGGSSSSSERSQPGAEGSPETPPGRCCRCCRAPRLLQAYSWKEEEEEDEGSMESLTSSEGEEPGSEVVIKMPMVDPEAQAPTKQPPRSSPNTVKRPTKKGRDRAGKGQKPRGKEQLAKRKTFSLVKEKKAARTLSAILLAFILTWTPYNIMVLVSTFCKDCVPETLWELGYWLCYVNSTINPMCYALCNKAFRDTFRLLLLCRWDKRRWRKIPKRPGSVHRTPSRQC
# [15] = target: Endothelin Receptor Type A (EDNRA) (Homo sapiens, UniProt P25101); experiment: SAFETYscan EDNRA Calcium Flux; format: cell-based; conditions: Agonist mode; 10 μM HU-MCA-13; read-out: Maximal Response
# Endothelin Receptor Type A (EDNRA), sequence (P25101 21-427): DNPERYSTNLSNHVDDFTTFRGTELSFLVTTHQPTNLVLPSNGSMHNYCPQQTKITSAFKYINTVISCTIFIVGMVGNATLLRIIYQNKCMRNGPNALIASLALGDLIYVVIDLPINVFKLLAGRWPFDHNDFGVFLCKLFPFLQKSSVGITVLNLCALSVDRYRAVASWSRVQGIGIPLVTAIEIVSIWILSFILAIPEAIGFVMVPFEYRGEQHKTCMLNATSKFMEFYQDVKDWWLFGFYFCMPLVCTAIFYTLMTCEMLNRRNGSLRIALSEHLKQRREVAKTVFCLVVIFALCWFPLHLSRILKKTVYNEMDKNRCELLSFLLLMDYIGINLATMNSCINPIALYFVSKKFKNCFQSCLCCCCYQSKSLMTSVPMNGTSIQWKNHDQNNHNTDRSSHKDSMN
# [16] = system: Gamma-aminobutyric acid Receptor A (GABAA); format: cell-based; conditions: 10 μM HU-MCA-13
compound,measurement,setting,value
C=CCC1CCC[C@@H](CCC(=O)O)C1=C (some centres unmarked) [Compound 13],Emax,[1]; Agonist mode,0%
same,Emax,[1]; Antagonist mode,2.28%
same,Emax,[2],15.4%
same,Emax,[3]; Agonist mode,0%
same,Emax,[3]; Antagonist mode,0.13%
same,cytotoxicity (in words),PC12 cells [4],not toxic to neurons
same,Emax,"[5]; read-out: Maximal Response, Agonist mode",7.66%
same,Emax,"[5]; read-out: Maximal Response, Antagonist mode",0%
same,Emax,[6],0%
same,Emax,[7]; Blocker mode,0.19%
same,Emax,[7]; Opener mode,0%
same,Neurotropic effect (mean ± SE) Seven Days Df,"PC12 cells [8]; PC12 cells, seven days of treatment, Df = fractal dimension of neurite outgrowth",0.45 ± 0.01
same,Neurotropic effect (mean ± SE) Two Days Df,"PC12 cells [8]; PC12 cells, two days of treatment, Df = fractal dimension of neurite outgrowth",0.39 ± 0.01
same,Neurotropic effect Seven Days NGF (%),"PC12 cells [8]; seven days, relative to NGF 50 ng/ml",97.8%
same,Neurotropic effect Two Days NGF (%),"PC12 cells [8]; two days, relative to NGF 50 ng/ml",84.8%
same,neurotropic activity (in words),PC12 cells [8]; after seven days of treatment,significant neurotropic activity
same,inducing fast neurite outgrowth (in words),PC12 cells [8]; after two days of treatment,most active
same,Emax,[9]; Agonist mode,6.34%
same,Emax,[9]; Antagonist mode,0%
same,Emax,[10]; Agonist mode,1.13%
same,Emax,[10]; Antagonist mode,0%
same,Emax,Cyclooxygenase 2 (COX 2),7.99%
same,Emax,[11],3.21%
same,Emax,[12]; Blocker mode,0.55%
same,Emax,[12]; Opener mode,0%
same,Emax,[13]; Agonist mode,1.92%
same,Emax,[13]; Antagonist mode,9.29%
same,Emax,[14]; Agonist mode,0%
same,Emax,[14]; Antagonist mode,7.43%
same,Emax,[15],0%
same,Maximal Response,[16]; Blocker mode,7.74%
same,Maximal Response,[16]; Opener mode,3.68%
